Legend:
[1] = Plasma protein binding by Centrifree ultrafiltration; assay type: in vitro ADME; settings: male, Wistar WU, rat, plasma (from dosed rats and from spiked blank blood); linear; not affected by co-administration of tariquidar
Description: […]. […] All blood samples were temporarily stored in heparin (10 IU) coated Eppendorf cups. […]. The spiked blood samples were then incubated in a shaking water bath at 37 °C for 30 min.
Plasma protein binding was determined with Centrifree® ultrafiltration devices (Millipore BV, Etten-Leur, the Netherlands). All procedures were performed according to the user’s manual. The ultrafiltrate was diluted ten times with saline before the analysis.

pKa and ionization = assay type: physicochemical
Source text: Therefore, based on our data, it appears that quinidine is also transported by other transporters at the BBB and BCSFB, in the direction of the brain. However, there is no direct information in literature to support this. […] The question remains how this relates to the in vivo situation, like ours. […] OCTs have been localized both at the BBB [66], as well as at the BCSFB [67].

Na^+-K^+-ATPase = settings: cited from earlier work
P-gp = system: P-gp; set-up: method as in PMID 11212278; settings: cited from earlier work
[2] = set-up: method as in PMID 18632828, PMID 21199574; settings: 15 mg/kg tariquidar; up to 3 h after administration; cited from earlier work

Row | Compound | fraction unbound at 30 min [1] | % ionized (pKa and ionization; pH 7.3) | % ionized (pKa and ionization; pH 7.4) | reported IC50 for inhibition of Na+-K+-ATPase activity (Na^+-K^+-ATPase) | half-maximum inhibition constant (IC50) for P-gp (P-gp) | plasma and brain concentrations relative to the IC50 value (fold higher) [2]
1 | C=C[C@H]1C[N@@]2CC[C@H]1C[C@@H]2[C@@H](O)c1ccnc2ccc(OC)cc12 [quinidine, Quinidine] | 0.135 | 80% | 76% | ~ 30 μg/ml |  | 
2 | COc1cc2c(cc1OC)CN(CCc1ccc(NC(=O)c3cc(OC)c(OC)cc3NC(=O)c3cnc4ccccc4c3)cc1)CC2 [tariquidar, Tariquidar] |  |  |  |  | approximately 25 ng/ml | over 50 -fold
